Assay results published in ChEMBL document CHEMBL5316285 (J Med Chem, 2023).
Calls of active or inactive are those of the source. The calls are words filed in the database; no cut-off is given here.

How the values were obtained:
[1] = biological target: T1, Nicotinamide phosphoribosyltransferase (Homo sapiens, UniProt P43490); assay: Competitive binding activity at NAMPT in human A2780 cells assessed as blocking of NAMPT degradation pretreated with MLN4924 for 2 hrs followed by compound addition at 10 nM measured after 24 hrs by Western blotting analysis; type: cell-based
Target sequence in this assay (P43490 whole entry, looked up): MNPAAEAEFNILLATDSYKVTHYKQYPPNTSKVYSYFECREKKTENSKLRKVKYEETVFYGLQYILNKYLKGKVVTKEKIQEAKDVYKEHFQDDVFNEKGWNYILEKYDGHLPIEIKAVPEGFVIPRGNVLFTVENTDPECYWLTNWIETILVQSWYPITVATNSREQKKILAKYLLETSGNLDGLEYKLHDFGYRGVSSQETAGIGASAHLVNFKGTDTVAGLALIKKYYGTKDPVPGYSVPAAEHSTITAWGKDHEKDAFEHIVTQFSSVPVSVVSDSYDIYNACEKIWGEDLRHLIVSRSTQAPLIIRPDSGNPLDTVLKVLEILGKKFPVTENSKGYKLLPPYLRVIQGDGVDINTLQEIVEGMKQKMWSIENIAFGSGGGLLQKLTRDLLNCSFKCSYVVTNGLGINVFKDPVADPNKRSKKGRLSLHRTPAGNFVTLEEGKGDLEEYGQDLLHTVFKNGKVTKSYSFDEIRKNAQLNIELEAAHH

[2] = biological target: T1, Nicotinamide phosphoribosyltransferase; assay: Binding affinity to NAMPT in human A2780 cells incubated at 10 uM measured from 63 to 75 degreeC for 7 hrs by cellular thermal shift assay; type: cell-based
Target sequence in this assay (P43490 whole entry, looked up): as above

[3] = MRT in Sprague-Dawley rat plasma at 20 mg/kg, IP after 0.083 to 24 hrs by LC-MS/MS analysis; type: ADME, organism-based; details: time 0.083-24 hrs
[4] = biological target: T1, Nicotinamide phosphoribosyltransferase; assay: Competitive binding activity at NAMPT in human A2780 cells assessed as blocking of NAMPT degradation pretreated with epoxomicin for 2 hrs followed by compound addition at 10 nM measured after 24 hrs by Western blotting analysis; type: cell-based
Target sequence in this assay (P43490 whole entry, looked up): as above

[5] = biological target: T2, von Hippel-Lindau disease tumor suppressor/Nicotinamide phosphoribosyltransferase (Homo sapiens, UniProt P43490+P40337); assay: Protac activity at VHL/NAMPT in human A2780 cells assessed as induction of NAMPT degradation measured at 10 nM; type: cell-based; details: time <= 24.0 hrs, TDE = time-dependent effect
Target sequence in this assay (P40337 whole entry, looked up): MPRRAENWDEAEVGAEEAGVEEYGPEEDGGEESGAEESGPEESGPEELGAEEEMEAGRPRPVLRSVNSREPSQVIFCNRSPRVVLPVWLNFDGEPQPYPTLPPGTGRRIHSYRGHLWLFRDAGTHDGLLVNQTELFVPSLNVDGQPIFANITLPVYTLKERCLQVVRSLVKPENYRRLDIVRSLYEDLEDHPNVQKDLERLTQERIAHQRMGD
Target sequence in this assay (P43490 whole entry, looked up): as the sequence (P43490 whole entry, looked up) above

[6] = biological target: T1, Nicotinamide phosphoribosyltransferase; assay: Competitive binding activity at NAMPT in human A2780 cells assessed as blocking of NAMPT degradation pretreated with 200 nM of 1-(4-(piperidin-1-ylsulfonyl)phenyl)-3-(pyridin-3-ylmethyl)thiourea for 2 hrs followed by compound addition at 10 nM measured after 24 hrs by Western blotting analysis; type: cell-based
Target sequence in this assay (P43490 whole entry, looked up): as above

[7] = Cmax in Sprague-Dawley rat plasma at 20 mg/kg, IP after 0.083 to 24 hrs by LC-MS/MS analysis; type: ADME, organism-based; design: time lower 0.083 hrs, dose 20 mg/kg, time upper 24 hrs, route ip
[8] = AUC in Sprague-Dawley rat plasma at 5 mg/kg, iv after 0.083 to 24 hrs by LC-MS/MS analysis; type: ADME, organism-based; design: dose 5 mg/kg, time upper 24 hrs, time lower 0.083 hrs, route iv
[9] = Cmax in mouse plasma at 20 mg/kg, IP after 0.083 to 24 hrs by LC-MS/MS analysis; type: ADME, organism-based; design: time upper 24 hrs, time lower 0.083 hrs, dose 20 mg/kg, route ip
[10] = biological target: von Hippel-Lindau disease tumor suppressor (Homo sapiens) (UniProt P40337); assay: Binding affinity to VHL in human A2780 cells incubated at 10 uM measured from 63 to 75 degreeC for 7 hrs by cellular thermal shift assay; type: cell-based
[11] = Half life in Sprague-Dawley rat plasma at 20 mg/kg, IP by LC-MS/MS analysis; type: ADME, organism-based
A2780 [12] = assay: Antitumor activity against human A2780 cells xenografted in nude mouse assessed as necrotic tumor cells at 2 uM/Kg, IV once every 3 days upto 21 days relative by hematoxylin and eosin staining analysis; type: functional, cell-based; details: time 21.0 day
[13] = Toxicity in nude mouse xenografted with human A2780 cells assessed as pathological damage in liver at 2 uM/Kg, IV once every 3 days upto 21 days by hematoxylin and eosin staining analysis; type: tissue-based; details: 504 h, time 21 day
[14] = biological target: T2, von Hippel-Lindau disease tumor suppressor/Nicotinamide phosphoribosyltransferase; assay: Protac activity at VHL/NAMPT in human A2780 cells assessed as reduction of NAMPT protein level at greater than 0.37 uM measured after 24 hrs by Western blotting analysis; type: cell-based
Target sequence in this assay (P40337 whole entry, looked up): as the sequence (P40337 whole entry, looked up) above
Target sequence in this assay (P43490 whole entry, looked up): as the sequence (P43490 whole entry, looked up) above

A2780 [15] = assay: Antitumor activity against human A2780 cells xenografted in nude mouse assessed as reduction in NAMPT protein level in tumor tissue at 2 uM/Kg, IV after 3 days by immuno histochemical analysis; type: functional, cell-based; details: time 3.0 day
[16] = Toxicity in nude mouse xenografted with human A2780 cells assessed as pathological damage in kidney at 2 uM/Kg, IV once every 3 days upto 21 days by hematoxylin and eosin staining analysis; type: tissue-based; details: 504 h, time 21 day
[17] = AUC in mouse plasma at 5 mg/kg, iv after 0.083 to 24 hrs by LC-MS/MS analysis; type: ADME, organism-based; design: time lower 0.083 hrs, dose 5 mg/kg, time upper 24 hrs, route iv
[18] = Toxicity in nude mouse xenografted with human A2780 cells assessed as pathological damage in heart at 2 uM/Kg, IV once every 3 days upto 21 days by hematoxylin and eosin staining analysis; type: tissue-based; details: 504 h, time 21 day
[19] = biological target: T2, von Hippel-Lindau disease tumor suppressor/Nicotinamide phosphoribosyltransferase; assay: Protac activity at VHL/NAMPT in human A2780 cells assessed as reduction of NAMPT protein level at 10 nM measured after 24 hrs by Western blotting analysis; type: cell-based
Target sequence in this assay (P40337 whole entry, looked up): as the sequence (P40337 whole entry, looked up) above
Target sequence in this assay (P43490 whole entry, looked up): as the sequence (P43490 whole entry, looked up) above

[20] = Toxicity in nude mouse xenografted with human A2780 cells assessed as pathological damage in spleen at 2 uM/Kg, IV once every 3 days upto 21 days by hematoxylin and eosin staining analysis; type: tissue-based; details: 504 h, time 21 day
[21] = biological target: T1, Nicotinamide phosphoribosyltransferase; assay: Competitive binding activity at NAMPT in human A2780 cells assessed as blocking of NAMPT degradation pretreated with MG132 for 2 hrs followed by compound addition at 10 nM measured after 24 hrs by Western blotting analysis; type: cell-based
Target sequence in this assay (P43490 whole entry, looked up): as above

[22] = MRT in Sprague-Dawley rat plasma at 5 mg/kg, iv after 0.083 to 24 hrs by LC-MS/MS analysis; type: ADME, organism-based; details: time 0.083-24 hrs
[23] = biological target: T2, von Hippel-Lindau disease tumor suppressor/Nicotinamide phosphoribosyltransferase; assay: Protac activity at VHL/NAMPT in human A2780 cells assessed as induction of NAMPT degradation measured at 0.005 to 10 microM after 24 hrs by Western blotting analysis; type: cell-based; details: dose 0.005-10 µM
Target sequence in this assay (P40337 whole entry, looked up): as the sequence (P40337 whole entry, looked up) above
Target sequence in this assay (P43490 whole entry, looked up): as the sequence (P43490 whole entry, looked up) above

[24] = Toxicity in nude mouse xenografted with human A2780 cells assessed as loss in body weight at 2 uM/Kg, IV once every 3 days upto 21 days; details: 504 h, time 21 day
[25] = biological target: T2, von Hippel-Lindau disease tumor suppressor/Nicotinamide phosphoribosyltransferase; assay: Protac activity at VHL/NAMPT in human A2780 cells assessed as degradation of NAMPT using NAM as substrate preincubated for 5 mins followed by substrate addition measured after 5 mins in presence of ATP by luminesence based microplate reader analysis; type: cell-based
Target sequence in this assay (P43490 whole entry): as the sequence (P43490 whole entry, looked up) above
Target sequence in this assay (P40337 whole entry): as the sequence (P40337 whole entry, looked up) above

A2780 [26] = assay: Antitumor activity against human A2780 cells xenografted in nude mouse assessed as reduction in Ki67 expression in tumor tissue at 2 uM/Kg, IV once every 3 days upto 21 days relative by immuno histochemical analysis; type: functional, cell-based; details: time 21.0 day
CT26 = assay: Antiproliferative activity against mouse CT26 cells; type: functional, cell-based
[27] = Retinal toxicity in nude mouse xenografted with human A2780 cells at 2 uM/Kg, IV once every 3 days upto 21 days by microscopic analysis; details: 504 h, time 21 day
[28] = Half life in mouse plasma at 5 mg/kg, iv by LC-MS/MS analysis; type: ADME, organism-based
[29] = biological target: T1, Nicotinamide phosphoribosyltransferase; assay: Inhibition of NAMPT (unknown origin) using NAM as substrate preincubated for 5 mins followed by substrate addition measured after 15 mins in presence of ATP by fluorescence based microplate reader analysis
Target sequence in this assay (P43490 whole entry): as the sequence (P43490 whole entry, looked up) above

[30] = biological target: T1, Nicotinamide phosphoribosyltransferase; assay: Competitive binding activity at NAMPT in human A2780 cells assessed as blocking of NAMPT degradation pretreated with carfilzomib for 2 hrs followed by compound addition at 10 nM measured after 24 hrs by Western blotting analysis; type: cell-based
Target sequence in this assay (P43490 whole entry, looked up): as above

[31] = Tmax in Sprague-Dawley rat plasma at 20 mg/kg, IP by LC-MS/MS analysis; type: ADME, organism-based
[32] = Cmax in Sprague-Dawley rat plasma at 5 mg/kg, iv after 0.083 to 24 hrs by LC-MS/MS analysis; type: ADME, organism-based; design: dose 5 mg/kg, time upper 24 hrs, time lower 0.083 hrs, route iv
[33] = biological target: T1, Nicotinamide phosphoribosyltransferase; assay: Competitive binding activity at NAMPT in human A2780 cells assessed as blocking of NAMPT degradation pretreated with 100 uM of (2S,4R)-1-((S)-2-acetamido-3,3-dimethylbutanoyl)-4-hydroxy-N-((S)-1-(4-(4-methylthiazol-5-yl)phenyl)ethyl)pyrrolidine-2-carboxamide for 2 hrs followed by compound addition at 10 nM measured after 24 hrs by Western blotting analysis; type: cell-based
[34] = Toxicity in nude mouse xenografted with human A2780 cells assessed as pathological damage in lung at 2 uM/Kg, IV once every 3 days upto 21 days by hematoxylin and eosin staining analysis; type: tissue-based; details: 504 h, time 21 day
A2780 [35] = assay: Downregulation of NAD+ in human A2780 cells treated upto 1000 nM for 24 hrs by chromogen based assay; type: functional, cell-based
A2780 [36] = assay: Antitumor activity against human A2780 cells xenografted in nude mouse assessed as tumor growth inhibition at 2 uM/Kg, IV once every 3 days upto 21 days relative to control; type: functional; details: time 21 day, at 2 µmol/kg
[37] = Cmax in mouse plasma at 5 mg/kg, iv after 0.083 to 24 hrs by LC-MS/MS analysis; type: ADME, organism-based; design: time upper 24 hrs, dose 5 mg/kg, time lower 0.083 hrs, route iv
[38] = Tmax in Sprague-Dawley rat plasma at 5 mg/kg, iv by LC-MS/MS analysis; type: ADME, organism-based; details: time 0.083-24 hrs
[39] = Half life in Sprague-Dawley rat plasma at 5 mg/kg, iv by LC-MS/MS analysis; type: ADME, organism-based
[40] = AUC in Sprague-Dawley rat plasma at 20 mg/kg, IP after 0.083 to 24 hrs by LC-MS/MS analysis; type: ADME, organism-based; design: dose 20 mg/kg, time 0.083-24 hrs, route ip
A2780 [41] = assay: Antiproliferative activity against human A2780 cells incubated for 72 hrs in carbon-dioxide atmosphere measured by cell counting kit-8 method; type: functional, cell-based; details: A2780, 72 h

Chain of von Hippel-Lindau disease tumor suppressor (Homo sapiens) (P40337 whole entry, looked up): as the sequence (P40337 whole entry, looked up) above

For `Cc1ncsc1-c1ccc([C@H](C)NC(=O)[C@@H]2C[C@@H](O)CN2C(=O)[C@@H](NC(=O)CCCCCCCCN2CCN(S(=O)(=O)c3ccc(NC(=O)NCc4cccnc4)cc3)CC2)C(C)(C)C)cc1`, the Activity [1] was “Active”, the Activity [2] was “Active” and the MRT [3] was 7.51 h. The Activity [4] was “Active”, the Activity [5] was “Tde” and the Activity [6] was “Active”. The Cmax [7] was 250 ng/mL, the AUC [8] was 1310 ng·h/mL and the Cmax [9] was 417 ng/mL. For the same molecule, the Activity [10] was “Active”, the half-life [11] was 5.41 h and the Activity (A2780 [12]) was “Active”. For the same molecule, the Activity [13] was “Non-Toxic”, the Activity [14] was “inactive” and the Activity (A2780 [15]) was “Active”. The Activity [16] was “Non-Toxic”, the AUC [17] was 477 ng·h/mL and the Activity [18] was “Non-Toxic”. The Activity [19] was “Active”, the Activity [20] was “Non-Toxic” and the Activity [21] was “Active”. The MRT [22] was 4.45 h, the Activity [23] was “Dose-Dependent Effect” and the Activity [24] was “Non-Toxic”. For the same molecule, the DC50 [25] was < 0.17 nM, the Activity (A2780 [26]) was “Active” and the IC50 (CT26) was 670 nM. The Activity [27] was “Non-Toxic”, the half-life [28] was 3.72 h and the IC50 [29] was 150 nM. The Activity [30] was “Active”, the Tmax [31] was 5 h and the Cmax [32] was 3190 ng/mL. The Activity [33] was “Active”, the Activity [34] was “Non-Toxic” and the Activity (A2780 [35]) was “Active”. The TGI (A2780 [36]) was 88.1%, the Cmax [37] was 1080 ng/mL and the Tmax [38] was 4.8 min. It also gave a half-life [39] of 6.53 h, an AUC [40] of 1740 ng·h/mL and an IC50 (A2780 [41]) of 1.5 nM.
